The text below walks through data of patent publication US20090291923A1, “TRIOXANE DIMERS HAVING HIGH ANTICANCER AND LONG-LASTING ANTIMALARIAL ACTIVITIES” (priority 2005, published 2009).

Values after ≈ are worked out from the molar mass of the structure shown. Like-named read-outs stand apart in the source and are kept apart here.

Series [1] deals with chloroquine-sensitive Plasmodium falciparum (NF 54) parasites. The series can be described thus: in vitro antimalarial potency, standard assay. The format is cell-based. Particulars: for IC50: Plasmodium falciparum, read-out: IC50 (nM), Antimalarial Activities in vitro.
Series [2] relates to normal ectocervical cells HCX (primary normal cervical cells). The series can be described thus: XTT cell viability assay, normal cervical cells. The format is cell-based, human. How it is done:
Primary human ectocervical keratinocytes were derived from fresh cervical tissue obtained from the Cooperative Human Tissue Network (CHTN) within 24 hours after removal from patients undergoing hysterectomies for benign non-cervical uterine diseases. Standard overnight dispase treatment and subsequent trypsinization procedures were used to isolate ectocervical epithelial cells, which were cultured in serum-free keratinocyte medium (KSFM) supplemented with bovine pituitary extract and epidermal growth factor according to the manufacturer's protocol (Invitrogen, Carlsbad, Calif.). […]
Cell viability was determined using 2.5×10^3 cells were plated in triplicates in 96 well tissue culture microplates in the appropriate culture medium and incubated for 24 hours in a humidified atmosphere at 37° C., 5% CO2. […] Cell viability (absorbance) was measured using an ELISA reader at 450 nm with a reference wavelength at 650 nm. Results were calculated as the percentage of cultures exposed to solvent control only. […]
2.5×10^3 cells were plated in triplicates in 96 well tissue culture microplates in the appropriate culture medium and incubated for 24 hours in a humidified atmosphere at 37° C., 5% CO2. […] Cell viability (absorbance) was measured using an ELISA reader at 450 nm with a reference wavelength at 650 nm. Results were calculated as the percentage of cultures exposed to solvent control only. […]
On the technique in general: Tetrazolium assays rely on reduction of a dye to a coloured formazan, in cell work by metabolically active cells.

The test system of series [3] is human cervical cancer cell line HeLa. The series can be described thus: XTT proliferation / cell viability assay, HeLa. The format is cell-based. Particulars: for IC50: Homo sapiens, XTT based assay, read-out: IC50, HeLa cells.
The test system of another series is GFP strain P. berghei. Nature of the series: in vivo antimalarial ED50 in mice, single administration SC or PO. Particulars: for ED50: Plasmodium berghei, in Mus musculus; for overt toxicity / behavioral modification in the mice: single dose of 3, 10 or 30 mg/kg SC or PO.
The test system of series [4] is panel of 60 human cancer cell lines. Nature of the series: NCI panel of 60 human cancer cell lines, growth inhibition. The format is cell-based. Particulars: nanomolar to micromolar concentrations. From the text: Cell growth was inhibited in a dose-dependent manner.
Series [5] in a line: solubility in aqueous pH 7.4 buffer. In kind it is physicochemical. Particulars: aqueous pH 7.4 buffer solution, pH 7.4, 25° C.
For series [6], the system named is malaria-infected mice (GFP strain P. berghei). The series can be described thus: oral in vivo antimalarial activity in malaria-infected mice, three doses over three days.
The subject of series [7] is Plasmodium berghei infected mice. In kind it is in vivo.
Where [8] appears, read: chloroquine-sensitive P. falciparum NF 54, quadruplicates.

Regarding `C[C@@H]1CC[C@H]2[C@@H](C)C(=O)O[C@@H]3O[C@]4(C)CC[C@@H]1[C@]32OO4` [Artemisinin, artemisinin, reference compound], the IC50 in series [1] (setting [8]) turned out to be 6.6 ± 0.76 nM.
Same read-out and setting: in the case of `C=C(CC[C@H]1O[C@@H]2O[C@@]3(C)CC[C@H]4[C@H](C)CC[C@@H]([C@H]1C)[C@@]24OO3)C(=C)CC[C@H]1O[C@@H]2O[C@@]3(C)CC[C@H]4[C@H](C)CC[C@@H]([C@H]1C)[C@@]24OO3` [dimer 4] it was 2.9 nM.
As for `COC(=O)c1cc(CC[C@H]2O[C@@H]3O[C@@]4(C)CC[C@H]5[C@H](C)CC[C@@H]([C@H]2C)[C@@]35OO4)c(CC[C@H]2O[C@@H]3O[C@@]4(C)CC[C@H]5[C@H](C)CC[C@@H]([C@H]2C)[C@@]35OO4)cc1C(=O)OC` [dimer 5], the “toxicity to primary normal cervical cells” value in series [2] is recorded as “without being toxic”. The IC50 in series [1] (setting [8]) was determined as 1.6 nM. Moreover, in series [3], the “times more potent than trioxane monomer DHA” value is reported as 10-20 times and the IC50 is 500 nM. Besides, the ED50 with GFP strain P. berghei (sc, read-out: SC ED50) is 0.71 mg/kg. Besides, the “overt toxicity / behavioral modification in the mice” value in the series on GFP strain P. berghei is given as “Neither over toxicity nor behavioral modification was observed”. Moreover, the “preliminary growth inhibitory activity, selectivity in the panel” value in series [4] is “extremely selective and highly potent at inhibiting the growth of only non-small cell lung carcinoma HOP-92 cells, melanoma SK-MEL-5 cells, and breast cancer BT-549 cells”.
As to `C[C@H]1[C@@H](CCc2cc(C(=O)O)c(C(=O)O)cc2CC[C@H]2O[C@@H]3O[C@@]4(C)CC[C@H]5[C@H](C)CC[C@@H]([C@H]2C)[C@@]35OO4)O[C@@H]2O[C@@]3(C)CC[C@H]4[C@H](C)CC[C@@H]1[C@@]24OO3` [dimer 6], the IC50 in series [1] (setting [8]) is 360 nM. For the same compound, the solubility in series [5] was about 14 mg/mL (≈ 18.5 mM).
As to `C[C@H]1[C@@H](CCc2cc(CO)c(CO)cc2CC[C@H]2O[C@@H]3O[C@@]4(C)CC[C@H]5[C@H](C)CC[C@@H]([C@H]2C)[C@@]35OO4)O[C@@H]2O[C@@]3(C)CC[C@H]4[C@H](C)CC[C@@H]1[C@@]24OO3` [dimer 7], the “toxicity to primary normal cervical cells” value in series [2] is on record as “without being toxic”. Also, the IC50 came to 0.77 nM in series [1] (setting [8]) and 46.5 nM in series [3]. The “times more antimalarially active than artemisinin” value in series [1] (in vitro, P. falciparum NF 54) was “approximately 10 times”. In series [3], the “times more potent than trioxane monomer DHA” value was 110-220 times. Moreover, the ED50 came out at 2.6 mg/kg in the series on GFP strain P. berghei (po, read-out: PO ED50) and 0.06 mg/kg in the series on GFP strain P. berghei (sc, read-out: SC ED50). Moreover, in the series with GFP strain P. berghei (mice, PO), the “times more efficacious than sodium artesunate administered PO” value is “approximately 1.5 times”. Also, the “overt toxicity / behavioral modification in the mice” value with GFP strain P. berghei is given as “Neither over toxicity nor behavioral modification was observed”.
Consider `C[C@H]1[C@@H](CCc2cc3c(cc2CC[C@H]2O[C@@H]4O[C@@]5(C)CC[C@H]6[C@H](C)CC[C@@H]([C@H]2C)[C@@]46OO5)COP(=O)(Oc2ccccc2)OC3)O[C@@H]2O[C@@]3(C)CC[C@H]4[C@H](C)CC[C@@H]1[C@@]24OO3` (some centres unmarked) [dimer 9], for which, in series [1], the IC50 stood at 3.7 nM.
Consider `C[C@H]1[C@H](OC(=O)CCC(=O)[O-])O[C@@H]2O[C@@]3(C)CC[C@H]4[C@H](C)CC[C@@H]1[C@@]24OO3.[Na+]` [sodium artesunate], for which the “Avg Mouse Survival (oral, 3 × 10 mg/kg)” value in series [6] is recorded as 6.7. Besides, the “life of the mice prolonged to” value in series [7] (30 mg/kg single dose, no drug 7 days) is 14 days. Also, in series [7] (single dose 30 mg/kg, subcutaneous), the malaria parasites killed result is given as “similarly efficacious”. For the same compound, the “PO ED50” value in the series on GFP strain P. berghei (mice, single administration, oral) stood at 4.0 mg/kg. Further, the “SC ED50” value with GFP strain P. berghei (mice, single administration, subcutaneous) was 2.2 mg/kg.

In general, IC50 refers to the midpoint of a concentration-inhibition curve. As usually defined, the ED50 is the midpoint of the dose-response relation. In general, solubility refers to the dissolved amount per volume that the medium holds.
